Experimental data: patent US20130115256A1, “METHODS FOR TREATING OR PREVENTING VASCULAR GRAFT FAILURE” (priority 2010, published 2013)

Legend:
MEK1 = target: T1, MEK1 (Homo sapiens, UniProt Q02750); test: MEK1 radiometric kinase assay; type: biochemical; details: MMI-0100 100 μM; remaining kinase activity
T1 construct: purchased Millipore (KinaseProfiler service)
Description: (§1) A commercial radiometric assay service was used to test the specificity and potency of MMI-0100 ([…]; SEQ ID NO: 1) by measuring its half maximal inhibitory concentrations (IC50). This quantitative assay measures how much MK2 inhibitor (MMI-0100; […] (SEQ ID NO: 1)) is needed to inhibit 50% of a given biological process or component of a process (i.e., an enzyme, cell, or cell receptor). Specifically, in these assays, a positively charged substrate is phosphorylated with a radiolabeled phosphate group from an ATP if the kinase is not inhibited by an inhibitor peptide. The positively charged substrate then is attracted to a negatively charged filter membrane, quantified with a scintillation counter, and compared to a 100% activity control. ATP concentrations within 15 μM of the apparent Km for ATP were chosen since an ATP concentration near the Km may allow for the kinases to have the same relative amount of phosphorylation activity. The individual conditions for each radiometric assay are as follows.
The reaction was initiated by adding the MgATP. After incubation for 40 minutes at room temperature, 5 μl of this incubation mix was used to initiate the MAPK2 radiometric assay whose reaction condition was the same as the condition for p38 MAPK assay described above.
(§2) IC50 values for inhibitor peptides were determined using Millipore's IC50 Profiler Express service. […]

JNK = JNK radiometric kinase assay; type: biochemical; details: MMI-0100 100 μM; remaining kinase activity
Description: as §1, with “The individual conditions for each radiometric assay are as follows.” left out
For the JNK (c-Jun N-terminal Kinase) radiometric assay, 5-10 mU of JNK was incubated with 50 mM Tris pH 7.5, 0.1 mM EGTA, 0.1% b-mercaptoethanol, 3 μM ATF2 (a substrate for JNK), 10 mM MgAcetate, and 10 μM of [y-^33P-ATP] in the final reaction volume of 25 μl. […] The washed P30 filtermat was dried and its radioactivity was measured by scintillation counter.
as §2

[1] = system: mouse lung endothelial cells (MLEC); test: Cell apoptosis analysis (annexin V flow cytometry); type: cell-based; details: any dose; 24 hours
Protocol: The apoptotic effect of MMI-0100 ([…]; SEQ ID NO: 1) on mouse lung endothelial cells (MLEC) was measured at 24 hours after MMI-0100 ([…]; SEQ ID NO: 1) treatment. MLEC were removed from the tissue culture plate by trypsin, and re-suspended at a concentration of 1.0×10^6 cells/ml. Apoptotic cells were detected by AlexaFluor® 488 annexin V/Dead Cell Apoptosis Kit (Invitrogen) using flow cytometry sorting analysis.

PRAK = target: T2, PRAK (Homo sapiens, UniProt Q8IW41); test: PRAK radiometric kinase assay; type: biochemical; details: MMI-0100 100 μM; remaining kinase activity
T2 construct: purchased Millipore (KinaseProfiler service)
T2 sequence (Q8IW41 1-473): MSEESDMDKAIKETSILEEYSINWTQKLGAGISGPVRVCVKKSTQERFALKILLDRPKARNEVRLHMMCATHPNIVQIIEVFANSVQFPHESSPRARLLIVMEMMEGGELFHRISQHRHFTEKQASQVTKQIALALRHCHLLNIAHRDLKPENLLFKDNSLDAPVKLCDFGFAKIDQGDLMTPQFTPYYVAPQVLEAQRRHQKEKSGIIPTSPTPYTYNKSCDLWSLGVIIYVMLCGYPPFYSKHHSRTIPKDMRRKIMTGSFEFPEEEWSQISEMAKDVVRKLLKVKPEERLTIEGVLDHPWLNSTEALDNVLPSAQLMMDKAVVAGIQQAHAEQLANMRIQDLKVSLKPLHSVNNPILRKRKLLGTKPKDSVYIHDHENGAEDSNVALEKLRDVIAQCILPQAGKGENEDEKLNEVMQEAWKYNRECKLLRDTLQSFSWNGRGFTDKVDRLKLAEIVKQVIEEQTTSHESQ
Description: as §1, with “follows. […]” for “follows.”
as §2

YARAAARQARAKALARQLGVAA [MMI-0100]
Percent Activity, MEK1 (MEK1): 68%
Percent Activity, JNK (JNK): 92%
EC apoptosis [1]: did not induce EC apoptosis
Percent Activity, PRAK (PRAK): 100%
